Data: ChEMBL document CHEMBL1201862, “PubChem BioAssay data set” (2004)
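Compound exposure: 48 hours, 5 concentrations, 96-well plates. GI50 = concentration required for 50% inhibition of growth.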 Active and inactive are the calls of the source. Rule as the data show it: active = GI50 up to about 1.1 µM and inactive = higher.

Columns and labels:
Test in all cases: inhibition of tumour cell growth, NCI panel, 48 h
MDA-N = test system: MDA-N
SW-620 = test system: SW-620
HOP-92 = test system: HOP-92
A498 = test system: A498
CAKI-1 = test system: CAKI-1
SK-MEL-5 = test system: SK-MEL-5
BT-549 = test system: BT-549
OVCAR-5 = test system: OVCAR-5
Malme-3M = test system: Malme-3M
OVCAR-3 = test system: OVCAR-3
SF-295 = test system: SF-295
SK-OV-3 = test system: SK-OV-3
NCI-H460 = test system: NCI-H460
SF-268 = test system: SF-268
OVCAR-4 = test system: OVCAR-4
DU-145 = test system: DU-145
SF-539 = test system: SF-539
SK-MEL-28 = test system: SK-MEL-28
RXF 393 = test system: RXF 393
SNB-19 = test system: SNB-19

Measured: GI50

O=C(O)c1ccccc1-c1ccccc1C(=O)Nc1ccc2c(c1)Cc1cc(F)ccc1-2
inactive: MDA-N 23.6 µM | SW-620 33.7 µM | HOP-92 37.9 µM | A498 19 µM | CAKI-1 30.4 µM | SK-MEL-5 19.5 µM | BT-549 18.9 µM | OVCAR-5 30.8 µM | Malme-3M 33.7 µM | OVCAR-3 17.7 µM | SF-295 26.4 µM | SK-OV-3 31.3 µM | NCI-H460 26.6 µM | SF-268 43.6 µM | OVCAR-4 25.9 µM | DU-145 33.6 µM | SF-539 29.5 µM | SK-MEL-28 37.8 µM | RXF 393 32.2 µM | SNB-19 36.4 µM

CC1(C)Oc2ccccc2OC1O (stereo not given)
inactive: MDA-N > 100 µM | SW-620 > 100 µM | HOP-92 > 100 µM | A498 > 100 µM | CAKI-1 > 100 µM | SK-MEL-5 > 100 µM | BT-549 > 100 µM | OVCAR-5 > 100 µM | Malme-3M > 100 µM | OVCAR-3 > 100 µM | SF-295 > 100 µM | SK-OV-3 > 100 µM | NCI-H460 > 100 µM | SF-268 > 100 µM | OVCAR-4 > 100 µM | DU-145 > 100 µM | SF-539 > 100 µM | SK-MEL-28 > 100 µM | RXF 393 > 100 µM | SNB-19 > 100 µM
